Assay results: ChEMBL document CHEMBL4316596, “Antimicrobial Peptides with High Proteolytic Resistance for Combating Gram-Negative Bacteria” (J Med Chem, 2019)

Key:
Acinetobacter baumannii [1] = test: Antimicrobial activity against Acinetobacter baumannii after 24 hrs by NCCLS-protocol based assay; format: functional
Klebsiella pneumoniae [2] = test: Bactericidal activity against Klebsiella pneumoniae incubated for 4 hrs followed by culture spread on agar plates and cultured overnight; format: functional; conditions: read-out: MBC>99.9
Salmonella typhimurium [3] = test: Bactericidal activity against Salmonella typhimurium C7731 incubated for 4 hrs followed by culture spread on agar plates and cultured overnight; format: functional, Salmonella enterica subsp. enterica serovar Typhimurium; conditions: Salmonella enterica, C7731, 4 h; read-out: MBC>99.9
Pseudomonas aeruginosa [4] = test: Antimicrobial activity against Pseudomonas aeruginosa PAO1 after 24 hrs by NCCLS-protocol based assay; format: functional; conditions: PAO1, 24 h
Salmonella typhimurium [5] = test: Antimicrobial activity against Salmonella typhimurium ATCC 14028 after 24 hrs by NCCLS-protocol based assay; format: functional, Salmonella enterica subsp. enterica serovar Typhimurium; conditions: Salmonella enterica, ATCC 14028, 24 h
Pseudomonas aeruginosa [6] = test: Bactericidal activity against Pseudomonas aeruginosa CICC 21625 clinical isolates incubated for 4 hrs followed by culture spread on agar plates and cultured overnight; format: functional; conditions: CICC 21625, 4 h, read-out: MBC>99.9
Escherichia coli [7] = test: Bactericidal activity against Escherichia coli K99 incubated for 4 hrs followed by culture spread on agar plates and cultured overnight; format: functional; conditions: K99, 4 h, read-out: MBC>99.9
Salmonella typhimurium [8] = test: Antimicrobial activity against Salmonella typhimurium C7731 after 24 hrs by NCCLS-protocol based assay; format: functional, Salmonella enterica subsp. enterica serovar Typhimurium; conditions: Salmonella enterica, C7731, 24 h
Pseudomonas aeruginosa [9] = test: Antimicrobial activity against Pseudomonas aeruginosa 25349 clinical isolates after 24 hrs by NCCLS-protocol based assay; format: functional; conditions: Pseudomonas aeruginosa, 25349, 24 h
Pseudomonas aeruginosa [10] = test: Bactericidal activity against Pseudomonas aeruginosa ATCC 27853 incubated for 4 hrs followed by culture spread on agar plates and cultured overnight; format: functional; conditions: ATCC 27853, 4 h, read-out: MBC>99.9
Escherichia coli [11] = test: Bactericidal activity against Escherichia coli UB1005 incubated for 4 hrs followed by culture spread on agar plates and cultured overnight; format: functional; conditions: UB1005, 4 h, read-out: MBC>99.9
Salmonella typhimurium [12] = test: Bactericidal activity against Salmonella typhimurium ATCC 14028 incubated for 4 hrs followed by culture spread on agar plates and cultured overnight; format: functional, Salmonella enterica subsp. enterica serovar Typhimurium; conditions: Salmonella enterica, ATCC 14028, 4 h; read-out: MBC>99.9
Pseudomonas aeruginosa [13] = test: Antimicrobial activity against Pseudomonas aeruginosa ATCC 27853 after 24 hrs by NCCLS-protocol based assay; format: functional; conditions: ATCC 27853, 24 h
Klebsiella pneumoniae [14] = test: Antimicrobial activity against Klebsiella pneumoniae after 24 hrs by NCCLS-protocol based assay; format: functional
[15] = Antimicrobial activity against Salmonella pullorum C7913 after 24 hrs by NCCLS-protocol based assay; format: functional, Salmonella enterica subsp. enterica serovar Pullorum; conditions: Salmonella enterica, C7913, 24 h
Escherichia coli [16] = test: Antimicrobial activity against Escherichia coli 078 after 24 hrs by NCCLS-protocol based assay; format: functional; conditions: Escherichia coli, 078, 24 h
Escherichia coli [17] = test: Bactericidal activity against Escherichia coli K88 incubated for 4 hrs followed by culture spread on agar plates and cultured overnight; format: functional; conditions: K88, 4 h, read-out: MBC>99.9
[18] = Bactericidal activity against Salmonella pullorum C7913 incubated for 4 hrs followed by culture spread on agar plates and cultured overnight; format: functional, Salmonella enterica subsp. enterica serovar Pullorum; conditions: Salmonella enterica, C7913, 4 h; read-out: MBC>99.9
Escherichia coli [19] = test: Antimicrobial activity against Escherichia coli K88 after 24 hrs by NCCLS-protocol based assay; format: functional; conditions: K88, 24 h
Acinetobacter baumannii [20] = test: Bactericidal activity against Acinetobacter baumannii incubated for 4 hrs followed by culture spread on agar plates and cultured overnight; format: functional; conditions: read-out: MBC>99.9
Pseudomonas aeruginosa [21] = test: Bactericidal activity against Pseudomonas aeruginosa 25349 clinical isolates incubated for 4 hrs followed by culture spread on agar plates and cultured overnight; format: functional; conditions: Pseudomonas aeruginosa, 25349, 4 h; read-out: MBC>99.9
Escherichia coli [22] = test: Bactericidal activity against Escherichia coli 078 incubated for 4 hrs followed by culture spread on agar plates and cultured overnight; format: functional; conditions: Escherichia coli, 078, 4 h; read-out: MBC>99.9
Escherichia coli [23] = test: Antimicrobial activity against Escherichia coli UB1005 after 24 hrs by NCCLS-protocol based assay; format: functional; conditions: UB1005, 24 h
Pseudomonas aeruginosa [24] = test: Bactericidal activity against Pseudomonas aeruginosa 26305 clinical isolates incubated for 4 hrs followed by culture spread on agar plates and cultured overnight; format: functional; conditions: Pseudomonas aeruginosa, 26305, 4 h; read-out: MBC>99.9
Pseudomonas aeruginosa [25] = test: Antimicrobial activity against Pseudomonas aeruginosa CICC 21630 clinical isolates after 24 hrs by NCCLS-protocol based assay; format: functional; conditions: CICC 21630, 24 h
Escherichia coli [26] = test: Antimicrobial activity against Escherichia coli K99 after 24 hrs by NCCLS-protocol based assay; format: functional; conditions: K99, 24 h
Pseudomonas aeruginosa [27] = test: Bactericidal activity against Pseudomonas aeruginosa PAO1 incubated for 4 hrs followed by culture spread on agar plates and cultured overnight; format: functional; conditions: PAO1, 4 h, read-out: MBC>99.9
Escherichia coli [28] = test: Antimicrobial activity against Escherichia coli ATCC 25922 after 24 hrs by NCCLS-protocol based assay; format: functional; conditions: ATCC 25922, 24 h
Pseudomonas aeruginosa [29] = test: Bactericidal activity against Pseudomonas aeruginosa CICC 21630 clinical isolates incubated for 4 hrs followed by culture spread on agar plates and cultured overnight; format: functional; conditions: CICC 21630, 4 h, read-out: MBC>99.9
Pseudomonas aeruginosa [30] = test: Antimicrobial activity against Pseudomonas aeruginosa CICC 21625 clinical isolates after 24 hrs by NCCLS-protocol based assay; format: functional; conditions: CICC 21625, 24 h
Escherichia coli [31] = test: Bactericidal activity against Escherichia coli ATCC 25922 incubated for 4 hrs followed by culture spread on agar plates and cultured overnight; format: functional; conditions: ATCC 25922, 4 h, read-out: MBC>99.9
Pseudomonas aeruginosa [32] = test: Antimicrobial activity against Pseudomonas aeruginosa 26305 clinical isolates after 24 hrs by NCCLS-protocol based assay; format: functional; conditions: Pseudomonas aeruginosa, 26305, 24 h

Substance | MIC95 (Acinetobacter baumannii [1]) | MBC (Klebsiella pneumoniae [2]) | MBC (Salmonella typhimurium [3]) | MIC95 (Pseudomonas aeruginosa [4]) | MIC95 (Salmonella typhimurium [5]) | MBC (Pseudomonas aeruginosa [6]) | MBC (Escherichia coli [7]) | MIC95 (Salmonella typhimurium [8]) | MIC95 (Pseudomonas aeruginosa [9]) | MBC (Pseudomonas aeruginosa [10]) | MBC (Escherichia coli [11]) | MBC (Salmonella typhimurium [12]) | MIC95 (Pseudomonas aeruginosa [13]) | MIC95 (Klebsiella pneumoniae [14]) | MIC95 [15] | MIC95 (Escherichia coli [16]) | MBC (Escherichia coli [17]) | MBC [18] | MIC95 (Escherichia coli [19]) | MBC (Acinetobacter baumannii [20]) | further results
H-IRPIIRPIIRPIIRPIIRPI-NH2 | 4 µM | 16 µM | 16 µM | 64 µM | 8 µM | > 64 µM | 4 µM | 16 µM | > 64 µM | 64 µM | 8 µM | 8 µM | 32 µM | 8 µM | 8 µM | 8 µM | 1 µM | 8 µM | 1 µM | 4 µM | MBC (Pseudomonas aeruginosa [21]): > 64 µM; MBC (Escherichia coli [22]): 16 µM; MIC95 (Escherichia coli [23]): 4 µM; MBC (Pseudomonas aeruginosa [24]): > 64 µM; MIC95 (Pseudomonas aeruginosa [25]): > 64 µM; MIC95 (Escherichia coli [26]): 4 µM; MBC (Pseudomonas aeruginosa [27]): 64 µM; MIC95 (Escherichia coli [28]): 8 µM; MBC (Pseudomonas aeruginosa [29]): > 64 µM; MIC95 (Pseudomonas aeruginosa [30]): > 64 µM; MBC (Escherichia coli [31]): 8 µM; MIC95 (Pseudomonas aeruginosa [32]): > 64 µM
H-IKPIIKPIIKPIIKPI-NH2 | > 64 µM | > 64 µM | > 64 µM | > 64 µM | > 64 µM | > 64 µM | > 64 µM | > 64 µM | > 64 µM | > 64 µM | > 64 µM | > 64 µM | > 64 µM | > 64 µM | > 64 µM | > 64 µM | > 64 µM | > 64 µM | > 64 µM | > 64 µM | MBC (Pseudomonas aeruginosa [21]): > 64 µM; MBC (Escherichia coli [22]): > 64 µM; MIC95 (Escherichia coli [23]): > 64 µM; MBC (Pseudomonas aeruginosa [24]): > 64 µM; MIC95 (Pseudomonas aeruginosa [25]): > 64 µM; MIC95 (Escherichia coli [26]): > 64 µM; MBC (Pseudomonas aeruginosa [27]): > 64 µM; MIC95 (Escherichia coli [28]): > 64 µM; MBC (Pseudomonas aeruginosa [29]): > 64 µM; MIC95 (Pseudomonas aeruginosa [30]): > 64 µM; MBC (Escherichia coli [31]): > 64 µM; MIC95 (Pseudomonas aeruginosa [32]): > 64 µM
H-LRPLLRPLLRPLLRPL-NH2 | 2 µM | > 64 µM | 64 µM | > 64 µM | 32 µM | > 64 µM | 32 µM | 64 µM | > 64 µM | > 64 µM | 32 µM | 64 µM | > 64 µM | > 64 µM | 8 µM | 16 µM | 8 µM | 16 µM | 8 µM | 8 µM | MBC (Pseudomonas aeruginosa [21]): > 64 µM; MBC (Escherichia coli [22]): 16 µM; MIC95 (Escherichia coli [23]): 32 µM; MBC (Pseudomonas aeruginosa [24]): > 64 µM; MIC95 (Pseudomonas aeruginosa [25]): > 64 µM; MIC95 (Escherichia coli [26]): 32 µM; MBC (Pseudomonas aeruginosa [27]): > 64 µM; MIC95 (Escherichia coli [28]): 8 µM; MBC (Pseudomonas aeruginosa [29]): > 64 µM; MIC95 (Pseudomonas aeruginosa [30]): 64 µM; MBC (Escherichia coli [31]): 8 µM; MIC95 (Pseudomonas aeruginosa [32]): > 64 µM
H-IRPIIRPIIRPIIRPI-NH2 | 8 µM | 32 µM | 32 µM | > 64 µM | 16 µM | > 64 µM | 16 µM | 16 µM | > 64 µM | > 64 µM | 16 µM | 16 µM | > 64 µM | 32 µM | 16 µM | 16 µM | 8 µM | 16 µM | 4 µM | 8 µM | MBC (Pseudomonas aeruginosa [21]): > 64 µM; MBC (Escherichia coli [22]): 32 µM; MIC95 (Escherichia coli [23]): 16 µM; MBC (Pseudomonas aeruginosa [24]): > 64 µM; MIC95 (Pseudomonas aeruginosa [25]): > 64 µM; MIC95 (Escherichia coli [26]): 8 µM; MBC (Pseudomonas aeruginosa [27]): > 64 µM; MIC95 (Escherichia coli [28]): 16 µM; MBC (Pseudomonas aeruginosa [29]): > 64 µM; MIC95 (Pseudomonas aeruginosa [30]): > 64 µM; MBC (Escherichia coli [31]): 32 µM; MIC95 (Pseudomonas aeruginosa [32]): > 64 µM
H-VRPVVRPVVRPVVRPVVRPVVRPV-NH2 | 4 µM | > 64 µM | 32 µM | > 64 µM | 16 µM | > 64 µM | 16 µM | 32 µM | > 64 µM | > 64 µM | 32 µM | 32 µM | > 64 µM | > 64 µM | 8 µM | 64 µM | 8 µM | 16 µM | 8 µM | 4 µM | MBC (Pseudomonas aeruginosa [21]): > 64 µM; MBC (Escherichia coli [22]): > 64 µM; MIC95 (Escherichia coli [23]): 32 µM; MBC (Pseudomonas aeruginosa [24]): > 64 µM; MIC95 (Pseudomonas aeruginosa [25]): > 64 µM; MIC95 (Escherichia coli [26]): 16 µM; MBC (Pseudomonas aeruginosa [27]): > 64 µM; MIC95 (Escherichia coli [28]): 64 µM; MBC (Pseudomonas aeruginosa [29]): > 64 µM; MIC95 (Pseudomonas aeruginosa [30]): > 64 µM; MBC (Escherichia coli [31]): > 64 µM; MIC95 (Pseudomonas aeruginosa [32]): > 64 µM
